In the test the target is T1, hTSHR (Homo sapiens, UniProt P16473).
T1 construct: expressed in transfected cells
T1 sequence (P16473 21-764): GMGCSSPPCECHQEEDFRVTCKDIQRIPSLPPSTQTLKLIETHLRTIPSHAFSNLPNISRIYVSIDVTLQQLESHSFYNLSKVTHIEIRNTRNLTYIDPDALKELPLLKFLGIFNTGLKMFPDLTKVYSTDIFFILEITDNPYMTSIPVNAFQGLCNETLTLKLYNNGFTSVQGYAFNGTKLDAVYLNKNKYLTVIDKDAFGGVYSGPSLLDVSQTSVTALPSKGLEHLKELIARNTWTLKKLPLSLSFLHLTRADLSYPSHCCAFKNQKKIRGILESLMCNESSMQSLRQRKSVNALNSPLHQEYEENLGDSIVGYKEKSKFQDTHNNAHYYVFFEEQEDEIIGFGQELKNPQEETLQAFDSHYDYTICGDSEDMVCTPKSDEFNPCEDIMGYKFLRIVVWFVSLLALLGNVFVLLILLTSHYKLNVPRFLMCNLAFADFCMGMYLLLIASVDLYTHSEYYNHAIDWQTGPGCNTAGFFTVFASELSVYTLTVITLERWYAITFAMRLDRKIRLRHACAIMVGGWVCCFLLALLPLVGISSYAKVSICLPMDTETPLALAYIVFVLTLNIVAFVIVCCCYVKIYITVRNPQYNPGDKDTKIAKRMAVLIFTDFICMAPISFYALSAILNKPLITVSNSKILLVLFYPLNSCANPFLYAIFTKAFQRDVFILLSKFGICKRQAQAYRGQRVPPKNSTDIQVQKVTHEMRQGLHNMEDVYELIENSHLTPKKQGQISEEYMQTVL
Briefly: hTSHR TR-FRET cAMP Assay (inhibition of M22-stimulated cAMP production). Type of test: cell-based. The note with it: Expi293F Inducible cells stably expressing hTSHR; cAMP HTRF; stimulated with EC80 of anti-TSHR antibody M22; 15 min compound preincubation, 30 min at 37° C.; read-out: Activity (IC50 bins). Summed up:
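Readout was a cAMP HTRF ratio of 655/620 nm after lysis, scaled between the EC80 M22 signal (0% inhibition) and no-agonist vehicle (100%). Frozen induced Expi293F-hTSHR cells saw test compounds (0.5% DMSO) for 15 min at 37 °C before 30 min of M22 stimulation at EC80.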
For `C[C@@H](c1cccc(CCOc2cn[nH]c2)c1)n1c(=O)cnc2cc(NC(=O)NC(C)(C)C)ccc21` [Example 119, (S)-1-(1-(1-(3-(2-((1H-pyrazol-4-yl)oxy)ethyl)phenyl)ethyl)-2-oxo-1,2-dihydroquinoxalin-6-yl)-3-(tert-butyl)urea], the IC50 – broadly, the concentration that inhibits the measured activity by half – is above 1000 nM.

Consider `C[C@@H](c1cccc(CCN(C)C(=O)C(C)(C)O)c1)n1c(=O)cnc2cc(NC(=O)NC(C)(C)C)ccc21` [Example 120, (S)-N-(3-(1-(6-(3-(tert-butyl)ureido)-2-oxoquinoxalin-1 (2H)-yl)ethyl)phenethyl)-2-hydroxy-N,2-dimethylpropanamide], for which the IC50 was above 1000 nM.

In the case of `C[C@@H](c1cccc(CCOCC(C)(C)O)c1)n1c(=O)cnc2cc(NC(=O)NC(C)(C)C)ccc21` [Example 121, (S)-1-(tert-butyl)-3-(1-(1-(3-(2-(2-hydroxy-2-methylpropoxy)ethyl)phenyl)ethyl)-2-oxo-1,2-dihydroquinoxalin-6-yl)urea], the IC50 was above 1000 nM.

On to `C[C@@H](c1cccc(C(F)F)c1)n1c(=O)cnc2cc(NC(=O)NC(C)(C)C)ccc21` [Example 122, (S)-1-(tert-butyl)-3-(1-(1-(3-(difluoro-methyl)phenyl)ethyl)-2-oxo-1,2-dihydroquinoxalin-6-yl)urea], for which the IC50 lay in the range of 100 to 1000 nM.

Take `C[C@@H](c1cccc2c1COCC2)n1c(=O)cnc2cc(NC(=O)NC(C)(C)C)ccc21` [Example 123, (S)-1-(tert-butyl)-3-(1-(1-(isochroman-8-yl)ethyl)-2-oxo-1,2-dihydroquinoxalin-6-yl)urea]: the IC50 is 100 to 1000 nM.

In the case of `C[C@@H](c1cccc2c1CCOC2)n1c(=O)cnc2cc(NC(=O)NC(C)(C)C)ccc21` [Example 124, (S)-1-(tert-butyl)-3-(1-(1-(isochroman-5-yl)ethyl)-2-oxo-1,2-dihydroquinoxalin-6-yl)urea], the IC50 is above 1000 nM.

Consider `C[C@@H](c1cccc2c1CCC2)n1c(=O)cnc2cc(NC(=O)NC(C)(C)C)ccc21` [Example 125, (S)-1-(tert-butyl)-3-(1-(1-(2,3-dihydro-1H-inden-4-yl)ethyl)-2-oxo-1,2-dihydroquinoxalin-6-yl)urea], for which the IC50 was 100 to 1000 nM.

As for `C[C@@H](c1cccc2ccncc12)n1c(=O)cnc2cc(NC(=O)NC(C)(C)C)ccc21` [Example 126, (S)-1-(tert-butyl)-3-(1-(1-(isoquinolin-8-yl)ethyl)-2-oxo-1,2-dihydroquinoxalin-6-yl)urea], the IC50 is above 1000 nM.

`C[C@@H](c1cccc(N2CCCCC2)c1)n1c(=O)cnc2cc(NC(=O)NC(C)(C)C)ccc21` [Example 127, (S)-1-(tert-butyl)-3-(2-oxo-1-(1-(3-(piperidin-1-yl)phenyl)ethyl)-1,2-dihydroquinoxalin-6-yl)urea]: the IC50 was 100 to 1000 nM.

As for `C[C@@H](c1cccc(OC(F)F)c1)n1c(=O)cnc2cc(NC(=O)NC(C)(C)C)ccc21` [Example 128, (S)-1-(tert-butyl)-3-(1-(1-(3-(difluoromethoxy)phe-nyl)ethyl)-2-oxo-1,2-dihydroquinoxalin-6-yl)urea], the IC50 fell in the range of 100 to 1000 nM.

Turning to `C[C@@H](c1cc(OC(F)(F)F)ccn1)n1c(=O)cnc2cc(NC(=O)NC(C)(C)C)ccc21` [Example 129, (S)-1-(tert-butyl)-3-(2-oxo-1-(1-(4-(trifluoromethoxy)pyri-din-2-yl)ethyl)-1,2-dihydroquinoxalin-6-yl)urea], the IC50 is above 1000 nM.

For `C[C@@H](c1cc(Cl)ccc1Cl)n1c(=O)cnc2cc(NC(=O)NC(C)(C)C)ccc21` [Example 130, (S)-1-(tert-butyl)-3-(1-(1-(2,5-dichlorophenyl)ethyl)-2-oxo-1,2-dihydroquinoxalin-6-yl)urea], the IC50 was 100 to 1000 nM.

As to `C[C@@H](c1cccc(Cl)c1)n1c(=O)cnc2cc(NC(=O)NC(C)(C)C)ccc21` [Example 131, (S)-1-(tert-butyl)-3-(1-(1-(3-chlorophenyl)ethyl)-2-oxo-1,2-dihydroquinoxalin-6-yl)urea], the IC50 is below 100 nM.

Values taken from patent US20260365628A1, “SUBSTITUTED 3,4-DIHYDROQUINOLINONE INHIBITORS OF TSHR” (Septerna, Inc., priority 2022, published 2026).
